US20100184809A1, “Heterocyclic FXR Binding Compounds” (PHENEX PHARMACEUTICALS AG, priority 2006, published 2010)
pIC50: −log10 of the molar value.

Columns and labels:
[1] = target: T1, human FXRalpha ligand binding domain (LBD) (Homo sapiens, UniProt Q96RI1); assay: FRET activity assay (ligand mediated cofactor peptide interaction, LANCE); assay type: biochemical; conditions: GST-FXR-LBD / biotinylated SRC-1 peptide (676-700)
T1 construct: made in house; host or cells: E. coli BL21(DE3), vector pDEST15
T1 sequence (Q96RI1 187-472 isoform Q96RI1-2): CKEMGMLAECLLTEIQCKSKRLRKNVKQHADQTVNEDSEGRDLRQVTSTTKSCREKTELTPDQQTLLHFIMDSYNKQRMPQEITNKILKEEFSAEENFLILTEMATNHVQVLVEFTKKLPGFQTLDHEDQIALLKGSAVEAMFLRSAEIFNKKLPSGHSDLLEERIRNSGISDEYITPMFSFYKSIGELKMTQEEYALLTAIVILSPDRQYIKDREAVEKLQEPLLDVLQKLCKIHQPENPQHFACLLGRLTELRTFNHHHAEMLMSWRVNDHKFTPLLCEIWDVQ
Outline: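 GST-tagged human FXRα LBD (aa 187-472) from E. coli, with biotinylated SRC-1 peptide 676-700 (200-600 nM), Eu anti-GST and streptavidin-APC in Tris pH 7.5 buffer, 1% DMSO. One hour at room temperature in the dark, then time-resolved FRET read as the 665/615 nm ratio.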

[2] = Rat hepatocyte stability assay; assay type: in vitro ADME; conditions: hepatocytes, 37° C., 60 minute, read-out: Rat hepatocyte clearance
Protocol: Compound stability towards rat hepatocytes was determined as follows: The hepatocytes are incubated with the test compound at 37° C. Samples are removed at the appropriate time points into methanol to terminate the reaction. Following centrifugation, the supernatant is analysed by LC-MS/MS. The disappearance of test compound is monitored over a 60 minute time period. The In peak area ratio (compound peak area/internal standard peak area) is plotted against time and the gradient of the line determined. Finally, half life t1/2 and Intrinsic clearance CLint is computed by the following equations: elimination rate konstant (k)=−gradient; t1/2 (min)=0.693/k; V (μl/10^6 cells)=volume of incubation (μl)/number of cells (*10^6); CLint (μl/min/10^6cells protein)=V*0.693/t1/2.

[3] = Caco-2 permeability; assay type: in vitro ADME; conditions: human, apical to basolateral
Protocol: Caco-2 cells are widely used as an in vitro model for predicting human drug absorption. The Caco-2 cell line is derived from a human colorectal carcinoma, and when cultured, the cells spontaneously differentiate into monolayers of polarised enterocytes. The cells are seeded on Transwell™ plates and form a confluent monolayer over 20 days prior to the experiment. On day 20, the test compound is added to the apical side of the membrane and the transport of the compound across the monolayer is monitored over a 2 hour time period. To study drug efflux, it is also necessary to investigate transport of the compound from the basolateral compartment to the apical compartment. The permeability coefficient (Papp) is calculated from the following equation: […]
Where dQ/dt is the rate of permeation of the drug across the cells, CO is the donor compartment concentration at time zero and A is the area of the cell monolayer.

| pIC50 [1] | hepatocyte CLint [2] | Papp A→B at 2 h [3] | SMILES |
| --- | --- | --- | --- |
| ≥ 6.00 |  |  | CC(C)c1onc(-c2c(Cl)cccc2Cl)c1COc1ccc(N(C)Cc2ccc(C(=O)O)cc2)c(C(F)(F)F)n1 [Example 28, 4(((6-((3-(2,6-Dichlorophenyl)-5-isopropylisoxazol-4-yl)methoxy)-2-(trifluoromethyl)pyridin-3-yl)(methyl)amino)methyl)benzoic acid] |
|  | 45 µL/min/1e6 cells |  | CC(C)c1onc(-c2c(Cl)cccc2Cl)c1COc1ccc(/C=C/c2cccc(C(=O)O)c2)c(Cl)c1 [Compound B, reference compound] |
| ≥ 6.00 | 7.1 µL/min/1e6 cells | 30 ×10⁻⁶ cm/s | Cc1nc(OCc2c(-c3c(Cl)cccc3Cl)noc2C(C)C)ccc1N(C)S(=O)(=O)c1ccc(C(=O)O)cc1 [Example 4, 4-(N-(6-((3-(2,6-dichlorophenyl)-5-isopropylisoxazol-4-yl)methoxy)-2-methylpyridin-3-yl)—N-methylsulfamoyl)benzoic acid] |
| ≥ 6.00 | 0.7 µL/min/1e6 cells | 32 ×10⁻⁶ cm/s | CC(C)c1onc(-c2c(Cl)cccc2Cl)c1COc1ccc(N(C)C(=O)c2ccc(C(=O)O)cc2)c(C(F)(F)F)n1 [Example 7, N-{6-[3-(2,6-dichloro-phenyl)-5-isopropyl-isoxazol-4-ylmethoxy]-2-trifluoromethyl-pyridin-3-yl}-N-methyl-terephthalamic acid] |
